Results from US12419888B2, “Methods of treating elevated plasma cholesterol” (INSTITUT DE CARDIOLOGIE DE MONTREAL, priority 2020, dated 2025).

System: LDLR protein levels in HepG2 cells
Assay: Western blot analysis of relative LDLR protein levels in HepG2 cells after treatment
Type: cell-based, human
Details: HepG2 cells incubated overnight with compound, 0.2 μM to 20 μM
Protocol: Cell culture, treatments and cell viability assay. For phenotypic screening of PCSK9 modulators and/or LDLR small molecule inducers, human HepG2 cells were incubated overnight in conditioned media containing chemical compounds resuspended in DMSO at concentration ranging from 0.2 μM to 20 μM. […] Following incubation, media have been replaced and cells incubated for 4 h with 100 μL of phenol red-free DMEM containing 0.5 mg/mL of MTT (3-[4,5-dimethylthiazol-2-yl]-2,5-diphenyltetrazolium bromide; thiazolyl blue; catalog no. M5655, Sigma-Aldrich), following manufacturer's instructions.
Western Blot Analysis, Immunocytochemistry and LDLR Activity Assay. Following incubation, cells were washed three times in phosphate-buffered saline (PBS) and lysed in radioimmune precipitation assay buffer (50 mM Tris/HCl, pH 8.0, 1% (v/v) Nonidet P-40, 0.5% sodium deoxycholate, 150 mM NaCl, and 0.1% (v/v) SDS) supplemented with a complete protease inhibitor mixture (catalog no. 11 697 498 001, Roche Applied Science). Proteins were separated by SDS polyacrylamide gel electrophoresis, blotted on nitrocellulose membranes (Bio-Rad), blocked incubated with indicated antibodies as described (Poirier S, et al., Cell Rep, 2015). For immunocytochemistry analysis, cells were permeabilized or not with 0.1% Triton X-100/PBS for 10 min, and incubated with 150 mM glycine, blocked and incubated with indicated primary and secondary antibodies. Immunofluorescence analyses were performed with an Olympus FluoView FV10i confocal microscope (Poirier et al., Cell Rep. 2015; 13(10):2064-2071). For LDLR activity assay, HepG2 cells were incubated overnight without or with a given compound in the presence of 5 μg/ml fluorescent labelled DiI-LDL (Alfa Aesar, Cat. #J65330) and co-stained for LDLR if applicable, as described (Poirier et al., J Biol Chem. 2009; 284(42):28856-28864). Immunofluorescence analyses were performed with an Olympus FluoView FV10i confocal microscope.

| SMILES | LDLR Fold (relative LDLR protein levels) |
| --- | --- |
| CN1C(=O)c2cc(C(=O)N3CCN(c4ccccc4)CC3)nn2C[C@]1(C)C(=O)NC1CCCCCC1 (stereo in doubt) [Compound 5, N-cycloheptyl-5,6-dimethyl-4-oxo-2-(4-phenylpiperazine-1-carbonyl)-4H,5H,6H,7H-pyrazolo[1,5-a]pyrazine-6-carboxamide] | 0.8 ± 0.0 Fold |
| CCOc1cccc([C@@H]2CC(c3ccc(C)cc3)=NC3(CCN(C(C)=O)CC3)N2)c1O (stereo in doubt) [Compound 3, 1-[4-(3-ethoxy-2-hydroxyphenyl)-2-(4-methylphenyl)-1,5,9-triazaspiro[5.5]undec-1-en-9-yl]ethan-1-one] | 1.8 ± 0.6 Fold |
| CC(C)(O)C#Cc1cccc(C(=O)N2CCc3c([nH]c4ccccc34)[C@H]2c2ccccn2)c1 (stereo in doubt) [Compound 21, 2-methyl-4-{3-[1-(pyridin-2-yl)-1H,2H,3H,4H,9H-pyrido[3,4-b]indole-2-carbonyl]phenyl}but-3-yn-2-ol] | 1.0 Fold |
| CC1(c2ccc3ccccc3c2)NC(=O)N(CC(=O)N2CCC(c3nc4ccccc4s3)CC2)C1=O (stereo not shown) [Compound 13, 3-{2-[4-(1,3-benzothiazol-2-yl)piperidin-1-yl]-2-oxoethyl}-5-methyl-5-(naphthalen-2-yl)imidazolidine-2,4-dione] | 1.5 ± 0.7 Fold |
| O=C(CN1CCOCC1)N1CCN(c2nnc(-c3ccccc3)c3ccccc23)CC1 [Compound 43, 2-(morpholin-4-yl)-1-[4-(4-phenylphthalazin-1-yl)piperazin-1-yl]ethan-1-one] | 0.9 Fold |
| Cc1ccc2nccc(C(=O)N3CCC[C@H](Cn4cc(C(C)(C)N)nn4)C3)c2c1 (stereo in doubt) [Compound 44, 2-[1-({1-[(6-methylquinolin-4-yl)carbonyl]piperidin-3-yl}methyl)-1H-1,2,3-triazol-4-yl]propan-2-amine] | 1.2 Fold |
| Cc1cc(C(=O)N2CCC[C@H](c3ccc(C(=O)O)cc3)C2)c2ccc(F)cc2n1 (stereo in doubt) [Compound 49, 4-[1-(7-fluoro-2-methylquinoline-4-carbonyl)piperidin-3-yl]benzoic acid] | 1.6 Fold |
| O=C(Cn1[nH]c(=O)c2ccccc2c1=O)Nc1ccc(N2C(=O)c3cccc4cccc(c34)C2=O)cc1 [Compound 4, 2-(1,4-dioxo-1,2,3,4-tetrahydrophthalazin-2-yl)-N-(4-{2,4-dioxo-3-azatricyclo[7.3.1.0^{5,13}]trideca-1(13),5,7,9,11-pentaen-3-yl}phenyl)acetamide] | 1.6 ± 0.2 Fold |
| CC1=NC2=NC(NCCc3c[nH]c4ccccc34)=N[C@H](c3ccccc3)N2C(O)=C1 (stereo in doubt) [Compound 29, 2-{[2-(1H-indol-3-yl)ethyl]amino}-8-methyl-4-phenyl-4H-pyrimido[1,2-a][1,3,5]triazin-6-ol] | 0.9 Fold |
| C[C@@]1(c2ccc3ccccc3c2)NC(=O)N(CC(=O)N2CCC(Cc3ccccc3)CC2)C1=O (stereo in doubt) [Compound 19, 3-[2-(4-benzylpiperidin-1-yl)-2-oxoethyl]-5-methyl-5-(naphthalen-2-yl)imidazolidine-2,4-dione] | 1.0 ± 0.5 Fold |
| O=C(CN1C(=O)c2ccccc2C1=O)N1CCN(c2nnc(-c3ccccc3)c3ccccc23)CC1 [Compound 38, 2-{2-oxo-2-[4-(4-phenylphthalazin-1-yl)piperazin-1-yl]ethyl}-2,3-dihydro-1H-isoindole-1,3-dione] | 0.9 Fold |
| Cc1nn(CC(=O)N2CCc3c([nH]c4ccccc34)[C@H]2c2ccccn2)c(=O)c2ccccc12 [Compound 2, 4-methyl-2-{2-oxo-2-[1-(2-pyridinyl)-1,3,4,9-tetrahydro-2H-beta-carbolin-2-yl]ethyl}-1(2H)-phthalazinone] | 1.0 ± 0.5 Fold |
| Cc1ccc2c(CC(=O)N3CCc4c([nH]c5ccccc45)[C@H]3c3ccccn3)cc(=O)oc2c1 (stereo in doubt) [Compound 22, 7-methyl-4-{2-oxo-2-[1-(pyridin-2-yl)-1H,2H,3H,4H,9H-pyrido[3,4-b]indol-2-yl]ethyl}-2H-chromen-2-one] | 1.4 Fold |
| O=C(NCCc1c[nH]c2ccccc12)c1ccc2c(c1)NC(=O)[C@H]1CCCCN21 (stereo in doubt) [Compound 8, N-[2-(1H-indol-3-yl)ethyl]-6-oxo-5,6a,7,8,9,10-hexahydropyrido[1,2-a]quinoxaline-3-carboxamide] | 1.0 ± 0.2 Fold |
| Cc1cccc([C@H]2c3[nH]c4ccccc4c3CCN2C(=O)C(=O)CCc2ccccc2)n1 (stereo in doubt) [Compound 24, 1-[1-(6-methylpyridin-2-yl)-1H,2H,3H,4H,9H-pyrido[3,4-b]indol-2-yl]-4-phenylbutane-1,2-dione] | 1.6 Fold |
| Cc1cc(C(=O)N2CCCC(C(=O)Nc3ccccc3)C2)c2ccccc2n1 (stereo not shown) [Compound 51, 1-(2-methylquinoline-4-carbonyl)-N-phenylpiperidine-3-carboxamide] | 1.2 Fold |
| O=C(c1cn(CCN2CCCCC2)nn1)N1CCC2(C=Cc3ccccc32)CC1 [Compound 9, 1′-{1-[2-(piperidin-1-yl)ethyl]-1H-1,2,3-triazole-4-carbonyl}spiro[indene-1,4′-piperidine]] | 0.4 ± 0.1 Fold |
| C[C@@]1(c2ccc3ccccc3c2)NC(=O)N(CC(=O)N2CCC[C@@H]3CCCC[C@@H]32)C1=O (stereo in doubt) [Compound 17, 3-[2-(decahydroquinolin-1-yl)-2-oxoethyl]-5-methyl-5-(naphthalen-2-yl)imidazolidine-2,4-dione] | 1.2 ± 0.6 Fold |
| CC1=NC2=NC(N3CCC(Cc4ccccc4)CC3)=N[C@H](c3cccnc3)N2C(O)=C1 (stereo in doubt) [Compound 34, 2-(4-benzylpiperidin-1-yl)-8-methyl-4-(pyridin-3-yl)-4H-pyrimido[1,2-a][1,3,5]triazin-6-ol] | 1.0 Fold |
| CC1CCN(CC(=O)N2CCN(c3nnc(-c4ccccc4)c4ccccc34)CC2)CC1 [Compound 40, 2-(4-methylpiperidin-1-yl)-1-[4-(4-phenylphthalazin-1-yl)piperazin-1-yl]ethan-1-one] | 0.9 Fold |
| CC1=NC2=NC(N3CCN(c4ccccc4)CC3)=N[C@H](c3ccc(Cl)cc3)N2C(O)=C1 (stereo in doubt) [Compound 31, 4-(4-chlorophenyl)-8-methyl-2-(4-phenylpiperazin-1-yl)-4H-pyrimido[1,2-a][1,3,5]triazin-6-ol] | 1.1 Fold |
| Cc1cccc([C@H]2c3[nH]c4ccccc4c3CCN2C(=O)CCc2ccccc2)n1 (stereo in doubt) [Compound 27, 1-[1-(6-methylpyridin-2-yl)-1H,2H,3H,4H,9H-pyrido[3,4-b]indol-2-yl]-3-phenylpropan-1-one] | 1.0 Fold |
| c1ccc2c(N3CCN(Cc4ccc5c(c4)OCO5)CC3)nnc(Cc3ccncc3)c2c1 [Compound 41, 1-{4-[(2H-1,3-benzodioxol-5-yl)methyl]piperazin-1-yl}-4-[(pyridin-4-yl)methyl]phthalazine] | 0.7 Fold |
| Cc1ccc(-c2nnc(N3CCN(C(=O)c4ccco4)CC3)c3ccccc23)cc1 [Compound 39, 1-[4-(furan-2-carbonyl)piperazin-1-yl]-4-(4-methylphenyl)phthalazine] | 0.9 Fold |
| C[C@H](NC(=O)[C@@H]1Cc2c([nH]c3ccccc23)[C@H]2c3ccccc3C(=O)N21)C(=O)NC1CCCC1 [Compound 1, (2S)—N-cyclopentyl-2-{[(11 S)-9-oxo-10,20-diazapentacyclo[11.7.0.0^2,^10.0^3,^8.0^14,^19]icosa-1(13),3,5,7,14,16,18-heptaen-11-yl]formamido}propanamide] | 1.2 ± 0.2 Fold |
| Cc1ccc(-c2nnc(N3CCN(C(=O)CN4C(=O)c5ccccc5C4=O)CC3)c3ccccc23)cc1 [Compound 36, 2-(2-{4-[4-(4-methylphenyl)phthalazin-1-yl]piperazin-1-yl}-2-oxoethyl)-2,3-dihydro-1H-isoindole-1,3-dione] | 0.8 Fold |
| COc1ccccc1C1N=C(Nc2cccc(C)c2C)N=C2N=C(C)C=C(O)N21 (stereo not shown) [Compound 32, 2-[(2,3-dimethylphenyl)amino]-4-(2-methoxyphenyl)-8-methyl-4H-pyrimido[1,2-a][1,3,5]triazin-6-ol] | 0.8 Fold |
| Cc1ccc(-c2nnc(N3CCN(C(=O)Cn4c(=O)n(C)c5ccccc54)CC3)c3ccccc23)cc1 [Compound 37, 1-methyl-3-(2-{4-[4-(4-methylphenyl)phthalazin-1-yl]piperazin-1-yl}-2-oxoethyl)-2,3-dihydro-1H-1,3-benzodiazol-2-one] | 1.0 Fold |
